Laboratory results reported in PubChem BioAssay (NCI).
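Where inhibition never reached the appropriate level, the endpoint shown equals the highest concentration tested. Otherwise, values were interpolated linearly from a five-concentration, 48-hour dose response in 96-well plates. TGI denotes the concentration required for complete inhibition of growth.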

Assays:
Test in all cases: NCI tumour cell line growth inhibition, 48 h
786-0 renal = system: 786-0 renal
A549 NSCLC = system: A549 NSCLC
ACHN renal = system: ACHN renal
BT-549 breast = system: BT-549 breast
CAKI-1 renal = system: CAKI-1 renal
CCRF-CEM leukemia = system: CCRF-CEM leukemia
COLO 205 colon = system: COLO 205 colon
DU-145 prostate = system: DU-145 prostate
EKVX NSCLC = system: EKVX NSCLC
HCC-2998 colon = system: HCC-2998 colon
HCT-116 colon = system: HCT-116 colon
HCT-15 colon = system: HCT-15 colon
HL-60(TB) leukemia = system: HL-60(TB) leukemia
HOP-62 NSCLC = system: HOP-62 NSCLC
HT29 colon = system: HT29 colon
IGROV1 ovarian = system: IGROV1 ovarian
K-562 leukemia = system: K-562 leukemia
KM12 colon = system: KM12 colon
LOX IMVI melanoma = system: LOX IMVI melanoma
M14 melanoma = system: M14 melanoma
MALME-3M melanoma = system: MALME-3M melanoma
MCF7 breast = system: MCF7 breast
MDA-MB-231 breast = system: MDA-MB-231 breast
MDA-MB-435 = system: MDA-MB-435
MDA-N = system: MDA-N
MOLT-4 leukemia = system: MOLT-4 leukemia
NCI-H226 lung = system: NCI-H226 lung
NCI-H23 lung = system: NCI-H23 lung
NCI-H522 lung = system: NCI-H522 lung
NCI/ADR-RES ovarian = system: NCI/ADR-RES ovarian
OVCAR-3 ovarian = system: OVCAR-3 ovarian
OVCAR-5 ovarian = system: OVCAR-5 ovarian
OVCAR-8 ovarian = system: OVCAR-8 ovarian
PC-3 prostate = system: PC-3 prostate
RPMI-8226 leukemia = system: RPMI-8226 leukemia
RXF 393 renal = system: RXF 393 renal
SF-268 CNS = system: SF-268 CNS
SF-295 CNS = system: SF-295 CNS
SF-539 CNS = system: SF-539 CNS
SK-MEL-28 melanoma = system: SK-MEL-28 melanoma
SK-MEL-5 melanoma = system: SK-MEL-5 melanoma
SK-OV-3 ovarian = system: SK-OV-3 ovarian
SN12C renal = system: SN12C renal
SNB-19 CNS = system: SNB-19 CNS
SNB-75 CNS = system: SNB-75 CNS
SR leukemia = system: SR leukemia
SW-620 colon = system: SW-620 colon
T-47D breast = system: T-47D breast
TK-10 renal = system: TK-10 renal
U251 CNS = system: U251 CNS
UACC-257 melanoma = system: UACC-257 melanoma
UACC-62 melanoma = system: UACC-62 melanoma
UO-31 renal = system: UO-31 renal
HOP-92 NSCLC = system: HOP-92 NSCLC
NCI-H460 lung = system: NCI-H460 lung
OVCAR-4 ovarian = system: OVCAR-4 ovarian
SK-MEL-2 melanoma = system: SK-MEL-2 melanoma

Work on CC#CC(O)(C(=O)OC1CC(C)N(C)C(C)(C)C1)C1CCCC1 (stereo not drawn) yielded a TGI (786-0 renal) greater than 100 µM, a TGI (A549 NSCLC) greater than 100 µM and a TGI (ACHN renal) greater than 100 µM. The TGI (BT-549 breast) was greater than 100 µM, the TGI (CAKI-1 renal) was greater than 100 µM and the TGI (CCRF-CEM leukemia) was greater than 100 µM. It also gave a TGI (COLO 205 colon) greater than 100 µM, a TGI (DU-145 prostate) greater than 100 µM and a TGI (EKVX NSCLC) greater than 100 µM. It also gave a TGI (HCC-2998 colon) greater than 100 µM, a TGI (HCT-116 colon) greater than 100 µM and a TGI (HCT-15 colon) greater than 100 µM. For the same compound, the TGI (HL-60(TB) leukemia) was greater than 100 µM, the TGI (HOP-62 NSCLC) was greater than 100 µM and the TGI (HT29 colon) was greater than 100 µM. For the same compound, the TGI (IGROV1 ovarian) was greater than 100 µM, the TGI (K-562 leukemia) was greater than 100 µM and the TGI (KM12 colon) was greater than 100 µM. For the same compound, the TGI (LOX IMVI melanoma) was greater than 100 µM, the TGI (M14 melanoma) was greater than 100 µM and the TGI (MALME-3M melanoma) was greater than 100 µM. It also gave a TGI (MCF7 breast) greater than 100 µM, a TGI (MDA-MB-231 breast) greater than 100 µM and a TGI (MDA-MB-435) greater than 100 µM. It also gave a TGI (MDA-N) greater than 100 µM, a TGI (MOLT-4 leukemia) greater than 100 µM and a TGI (NCI-H226 lung) greater than 100 µM. It also gave a TGI (NCI-H23 lung) greater than 100 µM, a TGI (NCI-H522 lung) greater than 100 µM and a TGI (NCI/ADR-RES ovarian) of 93.6 µM. The TGI (OVCAR-3 ovarian) was greater than 100 µM, the TGI (OVCAR-5 ovarian) was greater than 100 µM and the TGI (OVCAR-8 ovarian) was greater than 100 µM. The TGI (PC-3 prostate) was greater than 100 µM, the TGI (RPMI-8226 leukemia) was greater than 100 µM and the TGI (RXF 393 renal) was greater than 100 µM. The TGI (SF-268 CNS) was greater than 100 µM, the TGI (SF-295 CNS) was greater than 100 µM and the TGI (SF-539 CNS) was greater than 100 µM. For the same compound, the TGI (SK-MEL-28 melanoma) was greater than 100 µM, the TGI (SK-MEL-5 melanoma) was greater than 100 µM and the TGI (SK-OV-3 ovarian) was greater than 100 µM. For the same compound, the TGI (SN12C renal) was greater than 100 µM, the TGI (SNB-19 CNS) was greater than 100 µM and the TGI (SNB-75 CNS) was greater than 100 µM. It also gave a TGI (SR leukemia) greater than 100 µM, a TGI (SW-620 colon) greater than 100 µM and a TGI (T-47D breast) greater than 100 µM. The TGI (TK-10 renal) was greater than 100 µM, the TGI (U251 CNS) was greater than 100 µM and the TGI (UACC-257 melanoma) was greater than 100 µM. The TGI (UACC-62 melanoma) was greater than 100 µM and the TGI (UO-31 renal) was greater than 100 µM.
For S=C1NC2=C(CSC/C2=C\c2ccccc2)C(c2ccccc2)N1 (stereo not drawn), the TGI (786-0 renal) was greater than 100 µM, the TGI (A549 NSCLC) was greater than 100 µM and the TGI (ACHN renal) was greater than 100 µM. It also gave a TGI (BT-549 breast) of 78.7 µM, a TGI (CAKI-1 renal) greater than 100 µM and a TGI (CCRF-CEM leukemia) greater than 100 µM. The TGI (COLO 205 colon) was greater than 100 µM, the TGI (DU-145 prostate) was greater than 100 µM and the TGI (EKVX NSCLC) was greater than 100 µM. For the same compound, the TGI (HCC-2998 colon) was greater than 100 µM, the TGI (HCT-116 colon) was greater than 100 µM and the TGI (HCT-15 colon) was greater than 100 µM. For the same compound, the TGI (HL-60(TB) leukemia) was 44.5 µM, the TGI (HOP-62 NSCLC) was greater than 100 µM and the TGI (HOP-92 NSCLC) was 97.4 µM. For the same compound, the TGI (HT29 colon) was greater than 100 µM, the TGI (IGROV1 ovarian) was greater than 100 µM and the TGI (K-562 leukemia) was greater than 100 µM. For the same compound, the TGI (KM12 colon) was greater than 100 µM, the TGI (LOX IMVI melanoma) was greater than 100 µM and the TGI (M14 melanoma) was greater than 100 µM. The TGI (MALME-3M melanoma) was 99.4 µM, the TGI (MCF7 breast) was greater than 100 µM and the TGI (MDA-MB-231 breast) was greater than 100 µM. The TGI (MDA-N) was greater than 100 µM, the TGI (MOLT-4 leukemia) was greater than 100 µM and the TGI (NCI-H226 lung) was greater than 100 µM. The TGI (NCI-H23 lung) was greater than 100 µM, the TGI (NCI-H460 lung) was greater than 100 µM and the TGI (NCI-H522 lung) was greater than 100 µM. For the same compound, the TGI (NCI/ADR-RES ovarian) was greater than 100 µM, the TGI (OVCAR-3 ovarian) was greater than 100 µM and the TGI (OVCAR-4 ovarian) was greater than 100 µM. The TGI (OVCAR-5 ovarian) was greater than 100 µM, the TGI (OVCAR-8 ovarian) was greater than 100 µM and the TGI (PC-3 prostate) was greater than 100 µM. It also gave a TGI (RPMI-8226 leukemia) greater than 100 µM, a TGI (RXF 393 renal) greater than 100 µM and a TGI (SF-268 CNS) greater than 100 µM. For the same compound, the TGI (SF-295 CNS) was 89.1 µM, the TGI (SF-539 CNS) was greater than 100 µM and the TGI (SK-MEL-2 melanoma) was greater than 100 µM. It also gave a TGI (SK-MEL-28 melanoma) greater than 100 µM, a TGI (SK-MEL-5 melanoma) of 24.5 µM and a TGI (SK-OV-3 ovarian) greater than 100 µM. The TGI (SN12C renal) was greater than 100 µM, the TGI (SNB-19 CNS) was greater than 100 µM and the TGI (SR leukemia) was greater than 100 µM. The TGI (SW-620 colon) was greater than 100 µM, the TGI (T-47D breast) was greater than 100 µM and the TGI (TK-10 renal) was greater than 100 µM. For the same compound, the TGI (U251 CNS) was greater than 100 µM, the TGI (UACC-257 melanoma) was 58.8 µM and the TGI (UACC-62 melanoma) was greater than 100 µM. The TGI (UO-31 renal) was greater than 100 µM.
